Assays:
CYP2C9 = CYP2C9 (Homo sapiens, UniProt P11712); conditions: cited from earlier work
26S proteasome = conditions: cited from earlier work
c-fos [1] = conditions: rat; cited from earlier work
CYP1A2 = target: T1, CYP1A2 (Homo sapiens, UniProt P05177); conditions: cited from earlier work
T1 sequence (P05177 1-516): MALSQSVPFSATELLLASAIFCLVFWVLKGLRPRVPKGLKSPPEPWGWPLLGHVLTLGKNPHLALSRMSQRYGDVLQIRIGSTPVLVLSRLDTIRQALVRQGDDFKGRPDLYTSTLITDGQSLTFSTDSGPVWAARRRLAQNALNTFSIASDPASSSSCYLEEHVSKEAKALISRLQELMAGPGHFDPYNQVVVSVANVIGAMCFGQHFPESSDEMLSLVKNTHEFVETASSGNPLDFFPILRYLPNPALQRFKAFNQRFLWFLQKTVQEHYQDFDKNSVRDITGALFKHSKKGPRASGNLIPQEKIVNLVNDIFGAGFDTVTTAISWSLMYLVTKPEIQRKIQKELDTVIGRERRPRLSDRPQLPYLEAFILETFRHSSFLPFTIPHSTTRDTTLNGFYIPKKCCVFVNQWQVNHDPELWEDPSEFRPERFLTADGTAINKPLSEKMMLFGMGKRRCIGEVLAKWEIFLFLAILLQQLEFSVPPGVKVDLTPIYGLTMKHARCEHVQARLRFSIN

CYP2C19 = CYP2C19 (Homo sapiens, UniProt P33261); conditions: cited from earlier work
CYP2C19, sequence (P33261 whole entry): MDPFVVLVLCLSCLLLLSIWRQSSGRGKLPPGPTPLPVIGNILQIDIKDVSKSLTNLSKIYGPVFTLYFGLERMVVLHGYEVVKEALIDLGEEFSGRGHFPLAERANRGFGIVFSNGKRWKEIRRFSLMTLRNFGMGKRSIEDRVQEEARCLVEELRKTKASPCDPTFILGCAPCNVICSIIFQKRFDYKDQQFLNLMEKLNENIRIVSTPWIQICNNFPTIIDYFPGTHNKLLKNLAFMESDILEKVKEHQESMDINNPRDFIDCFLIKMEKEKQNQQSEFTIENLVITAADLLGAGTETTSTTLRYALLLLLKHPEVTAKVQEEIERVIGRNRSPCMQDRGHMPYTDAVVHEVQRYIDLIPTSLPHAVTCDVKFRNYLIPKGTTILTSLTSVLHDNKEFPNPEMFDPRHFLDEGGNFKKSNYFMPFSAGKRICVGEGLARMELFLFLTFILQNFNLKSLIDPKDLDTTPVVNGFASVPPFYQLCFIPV

GluR1 = conditions: cited from earlier work
c-fos [2] = conditions: unstressed rats; cited from earlier work
patients with MDD = assay: Five Phase II studies of vilazodone, eight weeks of treatment; format: in vivo, human; conditions: active comparator in three Phase II studies
Excerpt: As part of the vilazodone development program, five Phase II studies have been conducted, all in patients with MDD. These studies randomized 2,098 patients for eight weeks of treatment, 1196 of whom received vilazodone.

CYP3A4 = CYP3A4 (Homo sapiens, UniProt P08684); conditions: cited from earlier work
CYP3A4, sequence (P08684 whole entry): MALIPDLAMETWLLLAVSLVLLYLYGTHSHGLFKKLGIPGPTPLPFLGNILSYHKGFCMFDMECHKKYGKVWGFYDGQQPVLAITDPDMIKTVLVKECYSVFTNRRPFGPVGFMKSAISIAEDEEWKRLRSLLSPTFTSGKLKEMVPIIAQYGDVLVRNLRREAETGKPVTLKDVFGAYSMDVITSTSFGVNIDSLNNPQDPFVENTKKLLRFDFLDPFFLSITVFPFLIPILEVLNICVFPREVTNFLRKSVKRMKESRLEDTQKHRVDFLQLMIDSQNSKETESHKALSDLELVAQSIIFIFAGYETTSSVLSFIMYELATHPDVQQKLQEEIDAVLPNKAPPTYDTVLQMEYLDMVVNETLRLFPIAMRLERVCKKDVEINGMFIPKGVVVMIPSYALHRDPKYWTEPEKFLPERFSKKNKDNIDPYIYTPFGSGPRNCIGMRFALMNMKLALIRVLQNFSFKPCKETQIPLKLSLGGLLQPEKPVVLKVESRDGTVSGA

MAPK1 = conditions: cultured rat astrocytes; cited from earlier work
BCLXL expression = conditions: rat depression model, chronic administration; cited from earlier work
PLC-β1 knockout mice = conditions: cited from earlier work
mice = conditions: intracerebroventricular injection; cited from earlier work
GluR1, GluR2, and GluR3 = conditions: chronic (30 days) administration; mouse nucleus accumbens and dorsal striatum; cited from earlier work
laminin, CAM-L1, pCREB = conditions: chronic administration, unstressed rats; cited from earlier work

CYP2C9, sequence (P11712 whole entry): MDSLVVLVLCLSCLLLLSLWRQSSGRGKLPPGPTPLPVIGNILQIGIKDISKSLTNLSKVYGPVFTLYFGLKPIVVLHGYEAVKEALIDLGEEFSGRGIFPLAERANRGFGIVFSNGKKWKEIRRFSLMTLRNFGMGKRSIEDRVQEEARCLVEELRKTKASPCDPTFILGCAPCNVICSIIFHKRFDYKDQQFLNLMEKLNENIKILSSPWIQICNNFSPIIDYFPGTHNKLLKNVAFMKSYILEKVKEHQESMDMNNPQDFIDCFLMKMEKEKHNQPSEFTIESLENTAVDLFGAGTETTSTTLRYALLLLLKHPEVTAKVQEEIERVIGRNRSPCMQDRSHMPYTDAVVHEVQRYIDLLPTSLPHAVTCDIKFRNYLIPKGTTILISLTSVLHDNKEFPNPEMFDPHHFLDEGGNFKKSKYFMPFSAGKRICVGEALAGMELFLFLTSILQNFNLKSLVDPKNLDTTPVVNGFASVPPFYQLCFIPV

For `CN[C@H]1CC[C@@H](c2ccc(Cl)c(Cl)c2)c2ccccc21` [Sertraline], the “inhibition of CYP2C9” value (CYP2C9) is given as “partially inhibit”.

For `CCCCC[C@H](O)/C=C/[C@H]1C(=O)C=C[C@@H]1C/C=C\CCCC(=O)O` [prostaglandin J2], the “function of the 26S proteasome” value (26S proteasome) is listed as “inhibited”.

In the case of `CN(C)CCCN1c2ccccc2CCc2ccc(Cl)cc21` [clomipramine], the “level of c-fos in the PAG brain region” value (c-fos [1]) is listed as “decreased”.

For `CNCCC(Oc1ccc(C(F)(F)F)cc1)c1ccccc1` (stereo not shown) [fluoxetine], the “inhibition of CYP1A2” value (CYP1A2) is given as “inhibit”, the “inhibition of CYP2C19” value (CYP2C19) is given as “inhibit” and the “phosphorylation of GluR1” value (GluR1) is given as “increase”. For the same compound, the “c-fos staining in the brain” value (c-fos [2]) was “decrease”, the “Hamilton Depression Scale (HAM-D) total score versus placebo” value (patients with MDD) was “did not show a statistically significant improvement” and the “inhibition of CYP3A4” value (CYP3A4) was “inhibit”. The MAPK1 activation (MAPK1) was “increased”.

In the case of `N[C@@H]1C[C@H]1c1ccccc1` (racemic) [tranylcypromine], the “BCLXL expression in the CA1 and DG subfields” value (BCLXL expression) is listed as “increased”.

In the case of `CCOc1ccccc1OC(c1ccccc1)C1CNCCO1` (stereo not shown) [reboxetine], the “BCLXL expression in the CA1 and DG subfields” value (BCLXL expression) is listed as “increased” and the “c-fos staining in the brain” value (c-fos [2]) is listed as “decrease”.

In the case of `O=C(CCCN1CCC(O)(c2ccc(Cl)cc2)CC1)c1ccc(F)cc1` [haloperidol], the schizophrenic-like behaviors (PLC-β1 knockout mice) is listed as “rescued”.

For neuropeptide Y [NPY], the antidepressant-like effect (mice) is listed as “dose dependent antidepressant-like effect”.

For `CNCCCC12CCC(c3ccccc31)c1ccccc12` [maprotiline], the “GluR1, GluR2, and GluR3” value (GluR1, GluR2, and GluR3) is listed as “increased”.

For `CNCCCN1c2ccccc2CCc2ccccc21` [desipramine], the “laminin and CAM-L1 in hippocampus and frontal cortex” value (laminin, CAM-L1, pCREB) is listed as “increased”, the pCREB (laminin, CAM-L1, pCREB) is listed as “increased pCREB in the frontal cortex only” and the “level of c-fos in the PAG brain region” value (c-fos [1]) is listed as “decreased”.
